Values joined by “and” are separate entries in the source; they are usually repeats but may differ in a detail not shown here. Identical values can stand only once. “Also recorded” adds a separate entry of the source.
What was measured:
[1] = tested on: crude M. smegmatis enzymes (ESH pathway, EgtE); assay: Biotransformation of substrates to ergothioneine using crude M. smegmatis enzymes preparation (LC/MS); assay type: biochemical, Mycobacterium smegmatis; details: for concentration of ESH produced: 50 mM substrate, crude M. smegmatis cell free extract, 37° C., pH=7.4, 1 day, LCMS, control (endogenous ESH) 5.70 ng/ml
Protocol: FIG. 1 In vitro reconstitution of ESH; 100 μl reactions containing 20 mM Tris HCl pH=7.4, 20 mM NaCl, 0.2 Mm FeSO4.7H2O, 0.5 mM mercaptoethanol, 83 μl of crude M. smeg enzymes and 50 mM of either (a) S-(β-amino-β-carboxyethyl)ergothioneine sulfide (15); (b) S-(β-amino-β-carboxyethyl)ergothioneine sulfoxide (II) and (c) control. The crude enzyme reactions were incubated for 1 day at 37° C. followed by analysis by LC/MS.
The enzymatic and non-enzymatic PLP mediated synthesis of ESH from the synthetic sulfoxide (II) was compared. To this end, crude M. smegmatis cell free extracts were isolated from cultures grown and harvested at the late exponential phase, characterised by high enzymatic activity.^10
The crude enzymatic transformation of the ESH biosynthetic pathway precursors, including sulfide and sulfoxide variants were evaluated by the concomitant production of ESH in excess of basal levels as determined by LCMS. ESH precursor metabolites (β-amino-β-carboxyethyl)ergothioneine sulfide (15) and (β-amino-β-carboxyethyl)ergothioneine sulfoxide (II) were incubated with the crude cell free extract at 37° C., pH=7.4 for 1 day, and analyzed by LCMS.
The control reaction containing only the crude M. smegmatis cell free extract was also treated under the same conditions as the metabolites. The concentration of ESH thus obtained was 5.70 (±0.30) ng/ml, which was equated to that of endogenous ESH. This concentration was above the limit of detection (0.78 ng/ml), thus any increase in the concentration of ESH in the experiment above 1 ng/ml is considered significant enough to be ascribed to basal levels or biotransformation of the respective substrates by the crude endogenous enzymes of the ESH pathway. […]

[2] = Non enzymatic cleavage of C-S bond catalysed by PLP (LC/MS); details: 50 mM substrate plus 50 mM PLP, 20 mM Tris HCl pH=7.4, 37° C., 24 h
Protocol: FIG. 2 Non enzymatic production of ESH catalysed by PLP. TIC extracted for ESH and PLP using S-(β-amino-β-carboxyethyl)ergothioneine sulfide (15), S-(β-amino-β-carboxyethyl)ergothioneine sulfoxide (II) and S-(β-amino-β-carboxyethyl)ergothioneine sulfone (III).
FIG. 3 Non enzymatic production of ESH graph contain; 100 μl reactions containing 20 mM Tris HCl pH=7.4, 20 mM NaCl, 50 mM of either (1) sulfide (15) plus PLP, (2) sulfoxide (II) plus PLP, (3) sulfone (III) plus PLP respectively. Reaction time: 24 h.
Three sets of 100 μl reactions (1-3) containing 20 mM Tris HCl pH=7.4, and 50 mM of either (1) S-(β-amino-β-carboxyethyl)ergothioneine sulfide (15) and PLP (2) S-(β-amino-β-carboxyethyl)ergothioneine sulfoxide (II) and PLP or (3) S-(β-amino-βcarboxyethyl)ergothioneine sulfone (III) and PLP. The non-enzymatic reactions were incubated for 1 day at 37° C., followed by lyophilisation and subsequent reconstitution in LC buffer before analysis by LC/MS (FIGS. 2 and 3).

[3] = tested on: crude cell free extracts of Neurospora Crassa; details: synthetic sulfoxide of the 1974 prior synthesis; cited from earlier work

Row | concentration of ESH produced [1] [ng/mL] | stability to Egt E enzyme mediated C-S cleavage [1] | SMILES | formation of ESH (non-enzymatic, PLP) [2] | cleavage to ESH by crude cell free extracts [3]
1 | 22.6 | – | C[N+](C)(C)[C@@H](Cc1c[nH]c([S+]([O-])C[C@H](N)C(=O)O)n1)C(=O)O (stereo partly shown) [II] | no ESH at all; also recorded: did not produce ESH at all | extensively cleaved to ESH
2 | – | stable | C[N+](C)(C)[C@@H](Cc1c[nH]c(S(=O)(=O)C[C@H](N)C(=O)O)n1)C(=O)O [III] | did not produce ESH at all | –
3 | 19.2 | – | C[N+](C)(C)[C@@H](Cc1c[nH]c(SC[C@H](N)C(=O)O)n1)C(=O)O [compound 15, S-(β-amino-β-carboxyethyl)ergothioneine sulfide] | 96.3 ng/mL and 96.34 ng/mL | –

— US9908854B2, “Process for synthesizing ergothioneine and related compounds” (University of Cape Town, priority 2014, dated 2018)
